The target in data set [1] is T1, human importin α3 (Impα3) (Homo sapiens, UniProt O00629).
T1 construct: Human importin α3 isoform (residues 1–521); His-tag (N); made in house; host or cells: E. coli BL21 (DE3)
T1 sequence (O00629 1-521): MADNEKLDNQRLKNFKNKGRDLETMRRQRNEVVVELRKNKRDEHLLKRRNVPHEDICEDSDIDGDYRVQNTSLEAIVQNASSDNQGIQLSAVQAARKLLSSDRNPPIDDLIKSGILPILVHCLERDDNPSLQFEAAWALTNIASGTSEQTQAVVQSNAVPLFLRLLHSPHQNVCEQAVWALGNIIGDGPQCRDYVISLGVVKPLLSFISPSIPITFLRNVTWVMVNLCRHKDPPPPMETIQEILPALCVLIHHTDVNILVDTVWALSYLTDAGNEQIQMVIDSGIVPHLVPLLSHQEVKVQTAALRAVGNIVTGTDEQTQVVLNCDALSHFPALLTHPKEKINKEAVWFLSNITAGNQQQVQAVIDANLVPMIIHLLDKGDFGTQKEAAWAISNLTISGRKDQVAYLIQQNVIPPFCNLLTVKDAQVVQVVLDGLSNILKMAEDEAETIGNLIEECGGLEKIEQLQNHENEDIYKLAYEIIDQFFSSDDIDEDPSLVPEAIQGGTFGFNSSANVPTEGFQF
As to the kind of experiment: Isothermal titration calorimetry, binding to Impα3. To be noted: Tris 50 mM pH 8, 298 K. The text has this:
Figure 4 Binding of NLS-NUNPR1L to both importin species: (A) Titration curve monitoring the changes of Impα3 fluorescence at 340 nm in the presence of NLS-NUPR1L, after excitation at 280 nm. (B) Titration curve monitoring the changes of ∆Impα3 fluorescence at 340 nm in the presence of NLS-NUPR1L, after excitation at 280 nm. […] (C) Calorimetric binding isotherms (ligand normalized heat effect per injection as a function of the ligand/protein molar ratio) for the interaction of NLS-NUPR1L with Impα3 (left) and ∆Impα3 (right) are shown, with the thermogram (raw thermal power data as a function of time) at the top of each panel. Binding parameters were estimated by non-linear least squares regression data analysis of the interaction isotherms applying a single ligand binding site model implemented in Origin 7.0. (OriginLab, Northampton, MA, USA).
The experimental set-up and data processing of ITC experiments have been described previously. […] The temperature for all experiments was 298 K. The experiments were analyzed applying a model considering a single ligand binding site (1:1 stoichiometry for the NLS-NUPR1L/Impα3 (or ∆Impα3) interaction) implemented in Origin 7.0 (OriginLab, Northampton, MA, USA).
On the technique in general: ITC needs no label: the signal is the heat of the interaction.

The next data set has as its system Impα3. To be noted: 50 mM phosphate pH 7.0, 298 K; NLS-NUPR1L 10 μM, importin 4 μM. On the procedure: (§1) Fluorescence spectra were collected on a Cary Varian spectrofluorometer (Agilent, Santa Clara, CA, USA), interfaced with a Peltier unit. All experiments were carried out at 298 K. Following the standard protocols used in our laboratories, the samples were prepared the day before and left overnight at 278 K; before experiments, samples were left for 1 h at 298 K. A 1 cm pathlength quartz cell (Hellma, Kruibeke, Belgium) was used. The concentration of NLS-NUPR1L was 10 μM and those of both importins were 4 μM. Samples containing the isolated peptide, the isolated importin species, and a mixture of both (at those indicated concentrations) were prepared. Experiments were acquired in 50 mM phosphate buffer (pH 7.0). For the experiments with intact NUPR1L, a concentration of 15 μM (in protomer units) was used and that of each importin was 5 μM.
(§2) Protein samples were excited either at 280 or 295 nm. The other experimental parameters and the buffers used have been described elsewhere. […]
(§3) Far-UV CD spectra were collected on a Jasco J810 spectropolarimeter (Jasco, Tokyo, Japan) with a thermostated cell holder, and interfaced with a Peltier unit at 298 K. The instrument was periodically calibrated with (+)-10-camphorsulphonic acid. […] The concentration of each polypeptide (importin species and either NLS-NUPR1L or intact NUPR1L) was the same as that used in the fluorescence experiments (Section 4.4). […]

The next data set concerns ∆Impα3. To be noted: 50 mM phosphate pH 7.0, 298 K; NUPR1L 15 μM with importin 5 μM, or NLS-NUPR1L 10 μM with importin 4 μM. Here is the method: as §1, §2, §3
A short description of data set [2]: DOSY translational diffusion NMR. Format: physicochemical. To be noted: 120 μM peptide, 283 K. Here is the method: The peptide concentration in DOSY experiment was 120 μM, and 128 scans were acquired, where the gradient strength was varied linearly. Translational self-diffusion measurements were performed with the pulsed-gradient spin-echo sequence in the presence of 100% D2O. Experimental details have been described elsewhere. The gradient strength was varied in sixteen linear steps between 2 and 95% of the total power of the gradient coil. The gradient strength was calibrated using the value of the translational diffusion coefficient, D, for the residual proton water signal in a sample containing 100% D2O in a 5 mm tube [53]. The length of the gradient was 2.25 ms, the time between the two pulse gradients in the pulse sequence was 200 ms, and the recovery delay between the bipolar gradients was 100 μs. The methyl groups with signals between 1.0 and 0.80 ppm were used for peak integration (Section 2.2.1). Fitting of the exponential curves, obtained from experimental data as previously described, was carried out with KaleidaGraph version 3.5 (Synergy Software, Reading, PA, USA). A final concentration of 1% of dioxane, which was assumed to have a hydrodynamic radius Rh = 2.12 Å [53], was added to the peptide solution.

For the substance “Ac-RTRREQALRTNWPAPGGHERKVAQ-NH2 [NLS-NUPR1L]”, in data set [1], the “n, stoichiometry (ITC), Impα3” value was determined as 1.04 ± 0.05 and the “∆H (ITC), Impα3” value was -3.1 ± 0.5 kcal/mol. Also, the “spectral changes upon binding to Impα3 (fluorescence and CD)” value in the data set on Impα3 is “there were changes in the spectra upon addition of NLS-NUPR1L to each of the importin species”. Further, the “spectral changes upon binding to ∆Impα3 (fluorescence and/or far-UV CD)” value in the data set on ∆Impα3 was “there were changes in the spectra upon addition of NLS-NUPR1L to each of the importin species”. Also, in data set [2] (100% D2O, pH 7.2, 50 mM Tris), the “translational diffusion coefficient D” value is 1.74 ± 0.05 × 10^−6 cm^2 s^−1. In addition, in data set [2], the association state entry is given as “monomeric”. In data set [2] (estimated by comparison with dioxane (1%)), the “hydrodynamic radius Rh” value was 12 ± 2 Å.
